# The source made the active and inactive calls. The calls are words filed in the database; no cut-off is given here. Starred links: 1 amine or outer side, 2 acyl side, 3 side chain; linkers in the order of their positions; H or OH if unused. Positions of bridges follow the written chain, without caps; N, C: chain ends. Non-standard residues stand in square brackets, D forms with d. Residues, ends and D or L forms follow the SMILES beside them. *: point of attachment. X1 = NC(=O)C[C@@H](C(=O)[*:2])N(c1ccc2c(c1)C(=O)OC21c2ccc(O)cc2Oc2cc(O)ccc21)[*:1]; FITC = O=C1OC2(c3ccc(O)cc3Oc3cc(O)ccc32)c2ccc(NC(=S)*)cc21; Ahx = NCCCCCC(=O)O
# Key:
# Staphylococcus aureus [1] = assay: Antimicrobial activity against methicillin-resistant Staphylococcus aureus CCARM 3090 after 18 hrs; type: functional; conditions: CCARM 3090, 18 h
# Staphylococcus aureus [2] = assay: Antimicrobial activity against methicillin-resistant Staphylococcus aureus CCARM 3095 after 18 hrs; type: functional; conditions: CCARM 3095, 18 h
# Pseudomonas aeruginosa [3] = assay: Antimicrobial activity against multidrug-resistant Pseudomonas aeruginosa CCARM 2095 after 18 hrs; type: functional; conditions: CCARM 2095, 18 h
# Salmonella typhimurium = assay: Antimicrobial activity against Salmonella typhimurium KCTC 1926 after 18 hrs; type: functional, Salmonella enterica subsp. enterica serovar Typhimurium; conditions: Salmonella enterica, KCTC 1926, 18 h
# Pseudomonas aeruginosa [4] = assay: Antimicrobial activity against Pseudomonas aeruginosa KCTC 1637 after 18 hrs; type: functional; conditions: KCTC 1637, 18 h
# Bacillus subtilis = assay: Antimicrobial activity against Bacillus subtilis KCTC 3068 after 18 hrs; type: functional; conditions: KCTC 3068, 18 h
# Staphylococcus aureus [5] = assay: Induction of cytoplasmic membrane depolarization in Staphylococcus aureus KCTC 1621 at 2 to 8 times MIC concentration by DiSC3(5)-dye based fluorescence spectrophotometry; type: functional, organism-based
# Staphylococcus aureus [6] = assay: Antimicrobial activity against methicillin-resistant Staphylococcus aureus CCARM 3089 after 18 hrs; type: functional; conditions: CCARM 3089, 18 h
# Escherichia coli [7] = assay: Antimicrobial activity against Escherichia coli KCTC 1682 after 18 hrs; type: functional; conditions: KCTC 1682, 18 h
# [8] = test system: Staphylococcus epidermidis; assay: Antimicrobial activity against Staphylococcus epidermidis KCTC 1617 after 18 hrs; type: functional; conditions: KCTC 1617, 18 h
# Staphylococcus aureus [9] = assay: Induction of membrane permeabilization in Staphylococcus aureus KCTC 1621 at 2 to 8 times MIC concentration up to 300 secs by SYTOX green uptake assay; type: functional, organism-based
# Staphylococcus aureus [10] = assay: Antimicrobial activity against Staphylococcus aureus KCTC 1621 after 18 hrs; type: functional; conditions: KCTC 1621, 18 h
# Enterococcus faecium = assay: Antimicrobial activity against vancomycin-resistant Enterococcus faecium ATCC 51559 after 18 hrs; type: functional; conditions: ATCC 51559, 18 h
# Escherichia coli [11] = assay: Antimicrobial activity against Escherichia coli KCTC 1682 after 18 hrs using FITC-labelled compound; type: functional
# [12] = Drug uptake in Staphylococcus aureus KCTC 1621 cytoplasm at 30 uM after 20 mins using FITC-labeled compound by confocal laser-scanning microscopy; type: ADME
# [13] = Drug uptake in Escherichia coli KCTC 1682 cytoplasm at 30 uM after 20 mins using FITC-labeled compound by confocal laser-scanning microscopy; type: ADME
# Staphylococcus aureus [14] = assay: Antimicrobial activity against Staphylococcus aureus KCTC 1621 after 18 hrs using FITC-labelled compound; type: functional
# Escherichia coli [15] = assay: Drug penetration in Escherichia coli KCTC 1682 at MIC concentration after 20 mins using FITC-labelled compounds by confocal laser-scanning microscopy; type: ADME, organism-based; conditions: in vivo
# Staphylococcus aureus [16] = assay: Drug penetration in Staphylococcus aureus KCTC 1621 at MIC concentration after 20 mins using FITC-labelled compounds by confocal laser-scanning microscopy; type: ADME, organism-based; conditions: in vivo
# [17] = Hemolytic activity in sheep RBC assessed as free hemoglobin level up to 256 uM by ELISA relative to control; type: ADME, cell-based, Ovis aries, Erythrocyte; conditions: sheep red blood cells (erythrocytes), read-out: Activity
# DNA = assay: Binding affinity to Escherichia coli pBR322 DNA assessed as inhibition of DNA migration at 32 uM after 1 hr by agarose gel electrophoresis and UV spectroscopy; type: nucleic-acid assay
# Staphylococcus aureus [18] = assay: Bactericidal activity against Staphylococcus aureus KCTC 1621 at MIC concentration after 30 mins by time kill assay; type: functional, organism-based
# Escherichia coli [19] = assay: Bactericidal activity against Escherichia coli KCTC 1682 at MIC concentration after 120 to 180 mins by time kill assay; type: functional, organism-based
# RAW264.7 = assay: Cytotoxicity against mouse RAW264.7 cells at 512 uM after 48 hrs by MTT assay; type: cell-based; conditions: raw264.7, 48 h
# Escherichia coli [20] = assay: Induction of membrane permeabilization in Escherichia coli KCTC 1682 assessed as PI-positive cells at 25 uM after 1 to 2 hrs by propidium iodide-staining based flow cytometry (reference value: 2.36%); type: functional
Drug uptake [12],Drug uptake [13],Structure (SMILES),MIC (Staphylococcus aureus [1]) [µM],MIC (Staphylococcus aureus [2]) [µM],MIC (Pseudomonas aeruginosa [3]) [µM],MIC (Salmonella typhimurium) [µM],MIC (Pseudomonas aeruginosa [4]) [µM],MIC (Bacillus subtilis) [µM],Activity (Staphylococcus aureus [5]),MIC (Staphylococcus aureus [6]) [µM],MIC (Escherichia coli [7]) [µM],MIC [8] [µM],Activity (Staphylococcus aureus [9]),MIC (Staphylococcus aureus [10]) [µM],MIC (Enterococcus faecium) [µM],other results
,,CC[C@H](C)[C@H](NC(=O)[C@@H](NC(=O)[C@H](Cc1cnc[nH]1)NC(=O)[C@H](CCCNC(=N)N)NC(=O)[C@H](C)NC(=O)[C@H](CCCNC(=N)N)NC(=O)[C@H](CC(C)C)NC(=O)[C@H](CO)NC(=O)[C@H](C)NC(=O)[C@H](CC(C)C)NC(=O)[C@@H](N)CC(N)=O)[C@@H](C)O)C(=O)N1CCC[C@H]1C(=O)N[C@@H](CCC(N)=O)C(=O)N[C@@H](CCCNC(=N)N)C(=O)N[C@@H](CCCCN)C(=O)N[C@@H](Cc1ccccc1)C(=O)NCC(=O)N[C@@H](CCCNC(=N)N)C(=O)N[C@@H](CCCNC(=N)N)C(N)=O (H-NLASLRARHTIPQRKFGRR-NH2),25,25,25,6.3,6.3,6.3,inactive,12.5,6.3,6.3,inactive,12.5,50,
Active,Active,CC[C@H](C)[C@@H]1NC(=O)[C@H]([C@@H](C)O)NC(=O)[C@H](Cc2cnc[nH]2)NC(=O)[C@H](CCCNC(=N)N)NC(=O)[C@H](C)NC(=O)[C@H](CCCNC(=N)N)NC(=O)[C@H](CC(C)C)NC(=O)[C@H](CO)NC(=O)[C@H](C)NC(=O)[C@@H](NC(=O)[C@H](CC(C)C)NC(=O)[C@H](CC(N)=O)NC(=O)CCCCCNC(=S)Nc2ccc3c(c2)C(=O)OC32c3ccc(O)cc3Oc3cc(O)ccc32)CSSC[C@@H](C(=O)N[C@@H](CCCNC(=N)N)C(=O)N[C@@H](CCCCN)C(=O)N[C@@H](Cc2ccccc2)C(=O)NCC(=O)N[C@@H](CCCNC(=N)N)C(=O)N[C@@H](CCCNC(=N)N)C(N)=O)NC(=O)[C@H](CCC(N)=O)NC(=O)[C@@H]2CCCN2C1=O ({FITC-Ahx}-NLCASLRARHTIPQCRKFGRR-NH2; disulfide 3-15),,,,,,,,,,,,,,"MIC (Escherichia coli [11]; KCTC 1682, 18 h): 12.5 µM; MIC (Staphylococcus aureus [14]; KCTC 1621, 18 h): 12.5 µM"
Active,Active,CC[C@H](C)[C@H](NC(=O)[C@@H](NC(=O)[C@H](Cc1cnc[nH]1)NC(=O)[C@H](CCCNC(=N)N)NC(=O)[C@H](C)NC(=O)[C@H](CCCNC(=N)N)NC(=O)[C@H](CC(C)C)NC(=O)[C@H](CO)NC(=O)[C@H](C)NC(=O)[C@H](CO)NC(=O)[C@H](CC(C)C)NC(=O)[C@H](CC(N)=O)Nc1ccc2c(c1)C(=O)OC21c2ccc(O)cc2Oc2cc(O)ccc21)[C@@H](C)O)C(=O)N1CCC[C@H]1C(=O)N[C@@H](CCC(N)=O)C(=O)N[C@@H](CO)C(=O)N[C@@H](CCCNC(=N)N)C(=O)N[C@@H](CCCCN)C(=O)N[C@@H](Cc1ccccc1)C(=O)NCC(=O)N[C@@H](CCCNC(=N)N)C(=O)N[C@@H](CCCNC(=N)N)C(N)=O (H-[X1]LSASLRARHTIPQSRKFGRR-NH2),,,,,,,,,,,,,,Activity (Escherichia coli [11]): Active; Drug uptake (Escherichia coli [15]): Active; Drug uptake (Staphylococcus aureus [16]): Active; Activity (Staphylococcus aureus [14]): Active
,,CC[C@H](C)[C@@H]1NC(=O)[C@H]([C@@H](C)O)NC(=O)[C@H](Cc2cnc[nH]2)NC(=O)[C@H](CCCNC(=N)N)NC(=O)[C@H](C)NC(=O)[C@H](CCCNC(=N)N)NC(=O)[C@H](CC(C)C)NC(=O)[C@H](CO)NC(=O)[C@H](C)NC(=O)[C@@H](NC(=O)[C@H](CC(C)C)NC(=O)[C@@H](N)CC(N)=O)CSSC[C@@H](C(=O)N[C@@H](CCCNC(=N)N)C(=O)N[C@@H](CCCCN)C(=O)N[C@@H](Cc2ccccc2)C(=O)NCC(=O)N[C@@H](CCCNC(=N)N)C(=O)N[C@@H](CCCNC(=N)N)C(N)=O)NC(=O)[C@H](CCC(N)=O)NC(=O)[C@@H]2CCCN2C1=O (H-NLCASLRARHTIPQCRKFGRR-NH2; disulfide 3-15),25,12.5,50,12.5,12.5,12.5,inactive,12.5,12.5,12.5,inactive,12.5,25,hemolysis [17]: < 1%; Activity (DNA): Active; Activity (Staphylococcus aureus [18]): Active; Activity (Escherichia coli [19]): Active; Activity (RAW264.7): Non-Toxic; Activity (Escherichia coli [20]): 6.39%

# Reference: ChEMBL document CHEMBL4257591 (J Med Chem, 2018)
